Each molecule was assayed against T1, chymotrypsin-like activity of 20S proteasome (Bos taurus, UniProt Q2TBX6+Q32KL2) (assay: 20S proteasome chymotryptic activity inhibition assay (Suc-Leu-Leu-Val-Tyr-AMC cleavage)). Details: 2 μg 20S proteasome from bovine brain, 50 μM fluorogenic substrate, 15 minutes at 37° C., pH7.5.
T1 construct: was purified to homogeneity from bovine brain according to published methods; from tissue; host or cells: bovine brain
Type: biochemical
Description: Compounds of this invention prepared according to the method of Example 1 were tested as follows. The 20S catalytic subunit of the proteasome (also known as the multicatalytic proteinase complex) was purified to homogeneity from bovine brain according to published methods (Wilk S. and Orlowski,M 1983, 40 842 J.Neurochem). The chymotryptic activity of the complex is measured by the increase in fluorescence following cleavage of the substrate peptide succinyl-leucine-leucine-valine-tyrosine-7-amino-4methyl coumarin. The standard in vitro assay consists of 2 μg 20S proteasome, 0.1-100 μg/ml proteasome inhibitor in 200 μl 50 mM HEPES, containing 0.1% sodium dodecyl sulphate, pH7.5. The proteolytic reaction is initiated by the addition of 50 μM flourogenic peptide substrate and allowed to progress for 15 minutes at 37° C. The reaction is terminated by the addition of 100 μL of 100 mM acetate buffer, pH4.0. The rate of proteolysis is directly proportional to the amount of liberated aminomethylcoumarin which is measured by fluorescent spectroscopy (EX 370 nm, EM 430 nm).

SMILES	IC50 for the inhibition of the chymotrypsin-like activity of 20S proteasome	IC50
CC(C)CC(NC(=O)C(C)NC(=O)C(=O)Cc1c[nH]c2ccccc12)C(=O)NCC(=O)O (stereo not drawn) [Compound 57]	>10 µg/mL	
CC(C)C[C@@H](NC(=O)[C@H](CC(=O)O)NC(=O)C(=O)Cc1c[nH]c2ccccc12)C(=O)NCC(=O)O [Compound 58]		> 20.5 µM
CC(C)C[C@@H](NC(=O)[C@@H](NC(=O)C(=O)Cc1c[nH]c2ccccc12)C(C)C)C(=O)NCC(=O)O [Compound 59]		> 21.2 µM
CCCC(NC(=O)C(=O)Cc1c[nH]c2ccccc12)C(=O)NC(CC(C)C)C(=O)NCC(=O)O (stereo not drawn) [Compound 60]	>10 µg/mL	
CC(C)CC(NC(=O)C(Cc1ccc(O)cc1)NC(=O)C(=O)Cc1c[nH]c2ccccc12)C(=O)NCC(=O)O (stereo not drawn) [Compound 61]	>10 µg/mL	
CCC(C)C(NC(=O)C(=O)Cc1c[nH]c2ccccc12)C(=O)NC(CC(C)C)C(=O)NCC(=O)O (stereo not drawn) [Compound 62]	>10 µg/mL	
CC(C)CC(NC(=O)C(CC1CCCCC1)NC(=O)C(=O)Cc1c[nH]c2ccccc12)C(=O)NCC(=O)O (stereo not drawn) [Compound 63]	>10 µg/mL	
CC(C)CC(NC(=O)C(Cc1cccnc1)NC(=O)C(=O)Cc1c[nH]c2ccccc12)C(=O)NCC(=O)O (stereo not drawn) [Compound 64]	>10 µg/mL	
CC(C)CC(NC(=O)C(Cc1ccc2ccccc2c1)NC(=O)C(=O)Cc1c[nH]c2ccccc12)C(=O)NCC(=O)O (stereo not drawn) [Compound 65]	>10 µg/mL	
CC(C)CC(NC(=O)C(Cc1ccc(-c2ccccc2)cc1)NC(=O)C(=O)Cc1c[nH]c2ccccc12)C(=O)NCC(=O)O (stereo not drawn) [Compound 66]	>10 µg/mL	
CC(C)CC(NC(=O)CNC(=O)C(=O)Cc1c[nH]c2ccccc12)C(=O)NC(C)C(=O)O (stereo not drawn) [Compound 67]	>10 µg/mL	
CC(C)CC(NC(=O)CCNC(=O)C(=O)Cc1c[nH]c2ccccc12)C(=O)NC(C)C(=O)O (stereo not drawn) [Compound 68]	>10 µg/mL	
CCCCC(NC(=O)C(=O)Cc1c[nH]c2ccccc12)C(=O)NC(CC(C)C)C(=O)NC(C)C(=O)O (stereo not drawn) [Compound 69]	>10 µg/mL	
CC(C)CC(NC(=O)C(Cc1ccccc1)NC(=O)C(=O)Cc1c[nH]c2ccccc12)C(=O)NC(C)C(=O)O (stereo not drawn) [Compound 70]	>10 µg/mL	
CC(C)CC(NC(=O)C(NC(=O)C(=O)Cc1c[nH]c2ccccc12)C(C)O)C(=O)NC(C)C(=O)O (stereo not drawn) [Compound 71]	>10 µg/mL	
CC(C)CC(NC(=O)C(C)NC(=O)OCc1c[nH]c2ccccc12)C(=O)NC(C)C(=O)O (stereo not drawn) [Compound 72]	>10 µg/mL	
CC(C)CC(NC(=O)C(CC(=O)O)NC(=O)OCc1c[nH]c2ccccc12)C(=O)NC(C)C(=O)O (stereo not drawn) [Compound 73]	>10 µg/mL	
CC(C)CC(NC(=O)C(NC(=O)C(=O)Cc1c[nH]c2ccccc12)C(C)C)C(=O)NC(C)C(=O)O (stereo not drawn) [Compound 74]	>10 µg/mL	
CCCC(NC(=O)C(=O)Cc1c[nH]c2ccccc12)C(=O)NC(CC(C)C)C(=O)NC(C)C(=O)O (stereo not drawn) [Compound 75]		> 20.6 µM
CC(C)CC(NC(=O)C(Cc1ccc(O)cc1)NC(=O)C(=O)Cc1c[nH]c2ccccc12)C(=O)NC(C)C(=O)O (stereo not drawn) [Compound 76]	>10 µg/mL	
CCC(C)C(NC(=O)C(=O)Cc1c[nH]c2ccccc12)C(=O)NC(CC(C)C)C(=O)NC(C)C(=O)O (stereo not drawn) [Compound 77]		> 20 µM
CC(C)CC(NC(=O)C(CC1CCCCC1)NC(=O)C(=O)Cc1c[nH]c2ccccc12)C(=O)NC(C)C(=O)O (stereo not drawn) [Compound 78]	>10 µg/mL	
CC(C)CC(NC(=O)C(Cc1cccnc1)NC(=O)C(=O)Cc1c[nH]c2ccccc12)C(=O)NC(C)C(=O)O (stereo not drawn) [Compound 79]	>10 µg/mL	
CC(C)CC(NC(=O)C(Cc1ccc2ccccc2c1)NC(=O)C(=O)Cc1c[nH]c2ccccc12)C(=O)NC(C)C(=O)O (stereo not drawn) [Compound 80]	>10 µg/mL	
CC(C)CC(NC(=O)C(Cc1ccc(-c2ccccc2)cc1)NC(=O)C(=O)Cc1c[nH]c2ccccc12)C(=O)NC(C)C(=O)O (stereo not drawn) [Compound 81]		> 16.4 µM
CC(C)CC(NC(=O)CNC(=O)C(=O)Cc1c[nH]c2ccccc12)C(=O)NC(Cc1ccc(O)cc1)C(=O)O (stereo not drawn) [Compound 82]		> 18.6 µM

SMILES	IC50 for the inhibition of the chymotrypsin-like activity of 20S proteasome	IC50
CC(C)CC(NC(=O)C(NC(=O)C(=O)Cc1c[nH]c2ccccc12)C(C)O)C(=O)NC(Cc1ccc(O)cc1)C(=O)O (stereo not drawn) [Compound 83]	>10 µg/mL	
CC(C)CC(NC(=O)CCNC(=O)C(=O)Cc1c[nH]c2ccccc12)C(=O)NC(Cc1ccc(O)cc1)C(=O)O (stereo not drawn) [Compound 84]	>10 µg/mL	
CC(C)CC(NC(=O)C(=O)Cc1c[nH]c2ccccc12)C(=O)NC(CC(C)C)C(=O)NCC(=O)O (stereo not drawn) [Compound 85]	>10 µg/mL	
CC(C)CC(NC(=O)C(=O)Cc1c[nH]c2ccccc12)C(=O)NC(CC(C)C)C(=O)NC(Cc1ccc(O)cc1)C(=O)O (stereo not drawn) [Compound 88]		> 16.9 µM
CC(C)CC(NC(=O)CNC(=O)C(=O)Cc1c[nH]c2ccccc12)C(=O)NC(CO)C(=O)O (stereo not drawn) [Compound 89]	>10 µg/mL	
CC(C)CC(NC(=O)CCNC(=O)C(=O)Cc1c[nH]c2ccccc12)C(=O)NC(CO)C(=O)O (stereo not drawn) [Compound 90]	>10 µg/mL	
CCCC[C@H](NC(=O)C(=O)Cc1c[nH]c2ccccc12)C(=O)N[C@H](CC(C)C)C(=O)N[C@@H](CO)C(=O)O [Compound 91]		> 19.4 µM
CC(C)CC(NC(=O)C(Cc1ccccc1)NC(=O)C(=O)Cc1c[nH]c2ccccc12)C(=O)NC(CO)C(=O)O (stereo not drawn) [Compound 92]	>10 µg/mL	
CC(C)CC(NC(=O)C(NC(=O)C(=O)Cc1c[nH]c2ccccc12)C(C)O)C(=O)NC(CO)C(=O)O (stereo not drawn) [Compound 93]	>10 µg/mL	
CC(C)CC(NC(=O)C(C)NC(=O)C(=O)Cc1c[nH]c2ccccc12)C(=O)NC(CO)C(=O)O (stereo not drawn) [Compound 94]	>10 µg/mL	
CC(C)CC(NC(=O)C(CC(=O)O)NC(=O)C(=O)Cc1c[nH]c2ccccc12)C(=O)NC(CO)C(=O)O (stereo not drawn) [Compound 95]	>10 µg/mL	
CC(C)CC(NC(=O)C(NC(=O)C(=O)Cc1c[nH]c2ccccc12)C(C)C)C(=O)NC(CO)C(=O)O (stereo not drawn) [Compound 96]	>10 µg/mL	
CCCC(NC(=O)C(=O)Cc1c[nH]c2ccccc12)C(=O)NC(CC(C)C)C(=O)NC(CO)C(=O)O (stereo not drawn) [Compound 97]	>10 µg/mL	
CC(C)CC(NC(=O)C(Cc1ccc(O)cc1)NC(=O)C(=O)Cc1c[nH]c2ccccc12)C(=O)NC(CO)C(=O)O (stereo not drawn) [Compound 98]	>10 µg/mL	
CCC(C)C(NC(=O)C(=O)Cc1c[nH]c2ccccc12)C(=O)NC(CC(C)C)C(=O)NC(CO)C(=O)O (stereo not drawn) [Compound 99]	>10 µg/mL	
CC(C)CC(NC(=O)C(CC1CCCCC1)NC(=O)C(=O)Cc1c[nH]c2ccccc12)C(=O)NC(CO)C(=O)O (stereo not drawn) [Compound 100]	>10 µg/mL	
CC(C)CC(NC(=O)C(Cc1cccnc1)NC(=O)C(=O)Cc1c[nH]c2ccccc12)C(=O)NC(CO)C(=O)O (stereo not drawn) [Compound 101]	>10 µg/mL	
CC(C)CC(NC(=O)C(Cc1ccc(-c2ccccc2)cc1)NC(=O)C(=O)Cc1c[nH]c2ccccc12)C(=O)NC(CO)C(=O)O (stereo not drawn) [Compound 103]	>10 µg/mL	
CC(C)CC(NC(=O)CNC(=O)C(=O)Cc1c[nH]c2ccccc12)C(=O)NC(Cc1ccccc1)C(=O)O (stereo not drawn) [Compound 104]	>10 µg/mL	
CC(C)CC(NC(=O)CCNC(=O)C(=O)Cc1c[nH]c2ccccc12)C(=O)NC(Cc1ccccc1)C(=O)O (stereo not drawn) [Compound 105]	>10 µg/mL	
CCCCC(NC(=O)C(=O)Cc1c[nH]c2ccccc12)C(=O)NC(CC(C)C)C(=O)NC(Cc1ccccc1)C(=O)O (stereo not drawn) [Compound 106]	>10 µg/mL	
CC(C)CC(NC(=O)C(Cc1ccccc1)NC(=O)C(=O)Cc1c[nH]c2ccccc12)C(=O)NC(Cc1ccccc1)C(=O)O (stereo not drawn) [Compound 107]	>10 µg/mL	
CC(C)CC(NC(=O)C(NC(=O)C(=O)Cc1c[nH]c2ccccc12)C(C)O)C(=O)NC(Cc1ccccc1)C(=O)O (stereo not drawn) [Compound 108]	>10 µg/mL	
CC(C)CC(NC(=O)C(C)NC(=O)C(=O)Cc1c[nH]c2ccccc12)C(=O)NC(Cc1ccccc1)C(=O)O (stereo not drawn) [Compound 109]	>10 µg/mL	
CC(C)CC(NC(=O)C(CC(=O)O)NC(=O)C(=O)Cc1c[nH]c2ccccc12)C(=O)NC(Cc1ccccc1)C(=O)O (stereo not drawn) [Compound 110]	>10 µg/mL	

Reference: patent US6781000B1, “Alpha-ketoamide inhibitors of 20S proteasome” (CV Theurapeutics, Inc., priority 1998, dated 2004)
